Data reported in US8552026B2, “Isatin derivatives, medicaments containing the isatin derivatives and method for its preparation” (King Saud University, priority 2011, dated 2013).
In brackets after ≈: the same amount, converted by molar mass.

Experiments:
Assay in all cases: In vitro anti-TB activity, agar dilution method
Type in all cases: cell-based
[1] = system: Mycobacterium intercellulari (ATCC35743); conditions: for MIC: Mycobacterium, ATCC35743, agar dilution, 35° C., 48 hours, read-out: MIC (μg/ml)/Mycobacterium strain M. intercellulari
Protocol: (§1) The anti-TB activity of the synthesized compound was tested using the agar dilution method, see T. Aboul-Fadl, F. A. Mohammed, E. A. Hassan, Arch. Pharm. Res. 26 (2003) 778-784 and NCCLS Susceptibility Testing of Mycobacteria, Nocardia, and Other Aerobic Actinomycetes; Tentative Standard NCCLS document M24-T2 [ISBN 1-56238-423-6], second ed., NCCLS, 960 West Valley Road, Suite 1400, Wayne, Pa. 2000, 19087-1898, USA.
(§2) The synthesized compound was solubilized in DMSO at a concentration of 1 mg/ml. Appropriate amount was diluted first with 10% molten agar to give a concentration of 200 μg/ml. Further dilutions for the active compound were done to give 100, 50, 25, 12.5, 6.25 and up to 0.625 μg/ml. The agar and the compound solution were mixed thoroughly and the mixture was poured in Petri-dishes on a level surface to result in an agar depth of 3-4 mm and allowed to harden. The incula were prepared by growing overnight culture in Mueller-Hinton broth. The cultures were diluted 1:100. Test organisms were streaked in a radial pattern and plates were incubated at 35° C. for 48 hours. Control experiments consisted of the tested TB strains, DMSO and the growing media were treated in the same manner. Complete […] of growth was observed prior to declaring the compound to be active. The synthesized compound was evaluated for the antimycobacterial activity in vitro again four Mycobacterium strains: Mycobacterium intercellulari (ATCC35743), Mycobacterium xenopi (ATCC 14470), Mycobacterium cheleneo (ATCC 35751) and Mycobacterium smegmatis (ATCC 35797) by the agar dilution method. Isoniazid (INH) was used as a reference drug and control experiments done using a growth media free from drugs or the tested compound. Results of the in vitro antitubercular activity on the tested compound along with standard drug for comparison are given in table 1.

[2] = system: Mycobacterium xenopi (ATCC 14470); conditions: ATCC14470, 35° C., 48 hours, read-out: MIC (μg/ml)/Mycobacterium strain M. xenopi
Protocol: as §1, §2

[3] = system: Mycobacterium cheleneo (ATCC 35751); conditions: ATCC35751, 35° C., 48 hours, read-out: MIC (μg/ml)/Mycobacterium strain M. cheleneo
Protocol: as §1, §2

[4] = system: Mycobacterium smegmatis (ATCC 35797); conditions: Mycolicibacterium smegmatis, ATCC35797, 35° C., 48 hours, read-out: MIC (μg/ml)/Mycobacterium strain M. smegmatis
Protocol: as §1, §2

| Compound | MIC [1] [µg/mL] | MIC [2] [µg/mL] | MIC [3] [µg/mL] | MIC [4] [µg/mL] | potency relative to INH in vitro ([1]; antitubercular activity screening, all four strains, versus first line drug INH) [times] |
| --- | --- | --- | --- | --- | --- |
| NNC(=O)c1ccncc1 [INH, Isoniazid, reference compound] | 12.5 (≈ 91.1 µM) | 12.5 (≈ 91.1 µM) | 12.5 (≈ 91.1 µM) | 12.5 (≈ 91.1 µM) | – |
| CCn1cc(C(=O)NN=C2C(=O)N(Cc3ccccc3)c3ccccc32)c(=O)c2ccc(C)nc21 [R = H; R1 = H, N′-(1-benzyl-2-oxoindolin-3-ylidene)-1-ethyl-1,4-dihydro-7-methyl-4-oxo-1,8-naphthyridine-3-carbohydrazid] | 0.625 (≈ 1.34 µM) | 0.625 (≈ 1.34 µM) | 0.625 (≈ 1.34 µM) | 0.625 (≈ 1.34 µM) | 20 |
